Source: patent US20230052740A1, “MODULATORS OF CIRCADIAN RHYTHMS AND USES THEREOF” (The Regents of the University of California, priority 2019, published 2023)
Like-named read-outs stand apart in the source and are kept apart here.

What was measured:
MT2 = molecular target: T1, MT2 (Homo sapiens, UniProt P49286); test: cAMP assay (GloSensor), isoproterenol-stimulated cAMP in HEK cells; assay type: cell-based; set-up: expressed in transfected cells; host or cells: HEK-T (HEK-293 T) cells, co-transfected with GloSensor DNA; MT2 activity: dose or concentration left out as unconfirmed; conditions: for MT2 selectivity (agonist) / type selectivity / efficacy at the MT2 receptor: panel of widely-used MTR ligands; for type selectivity / efficacy at the MT2 receptor: in words; for selectivity for MT2 over MT1: FIG. 7 analogs of '9032
T1 sequence (P49286 1-362): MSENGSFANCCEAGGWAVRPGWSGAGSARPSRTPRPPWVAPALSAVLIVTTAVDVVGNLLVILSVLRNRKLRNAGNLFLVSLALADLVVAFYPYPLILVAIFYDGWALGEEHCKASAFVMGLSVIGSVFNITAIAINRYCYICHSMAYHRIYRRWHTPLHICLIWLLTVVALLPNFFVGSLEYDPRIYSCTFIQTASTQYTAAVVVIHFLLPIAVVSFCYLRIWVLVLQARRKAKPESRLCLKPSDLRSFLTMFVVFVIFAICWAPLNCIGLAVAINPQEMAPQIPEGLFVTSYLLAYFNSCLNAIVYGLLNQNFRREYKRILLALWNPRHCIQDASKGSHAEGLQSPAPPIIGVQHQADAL
Procedure: MT1 and MT2 receptors were tested using Promega's spilt luciferase based GboSensor cAMP biosensor technology. HEK-T cells were plated in 15 cm cell culture dish (at a density of 18 million cells) containing DMEM composed of 10% dialyzed FBS, 2 mM L-glutamine, 100 units/ml penicillin G, 100 μg/ml streptomycin for 4-6 hour. Then, cells were co-transfected with 8 μg of construct which encodes either MT1 or MT2 (de-Tangonized constructs) and […] of Glosensor DNA. […] The next day, cell medium were discarded and loaded with 20 μl of assay buffer (1×HBSS, 20 mM HEPES, pH 7.4, 0.1% BSA). To measure agonist activity of MT1 or MT2 receptor, 10 μl of test compound solution at 3× final concentration was added for 15 minutes followed by addition of 10 μl of luciferin/isoproterenol mixture (at a final concentration of 4 mM and 200 nM respectively) for another 15 mins for luminescence quantification. Then, plates were counted using SpectraMax luminescence reader (Molecular Device). Data were analyzed using GraphPad Prism 6.0.

hMT1 = hMT1 (Homo sapiens, UniProt P48039); test: as above; assay type: cell-based; set-up: expressed in transfected cells; host or cells: HEK-T (HEK-293 T) cells, co-transfected with GloSensor DNA
hMT1, sequence (P48039 whole entry): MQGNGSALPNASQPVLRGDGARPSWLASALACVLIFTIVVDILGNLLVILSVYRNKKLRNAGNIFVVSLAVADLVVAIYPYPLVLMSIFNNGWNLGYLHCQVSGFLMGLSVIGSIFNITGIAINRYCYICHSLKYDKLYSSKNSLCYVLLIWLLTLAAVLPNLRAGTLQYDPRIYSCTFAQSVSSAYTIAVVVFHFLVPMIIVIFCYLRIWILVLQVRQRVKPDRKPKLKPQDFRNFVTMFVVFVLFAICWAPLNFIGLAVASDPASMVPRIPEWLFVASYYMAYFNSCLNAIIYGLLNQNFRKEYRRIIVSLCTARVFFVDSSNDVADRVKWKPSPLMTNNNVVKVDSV
Procedure: HEK-293 T cells were maintained with complete Dulbecco's modified Eagle's medium (DMEM), which is composed of 10% fetal bovine serum (FBS), 2 mM L-glutamine, 100 units/ml penicillin G, 100 μg/ml streptomycin at 37° C. in the presence of 5% CO2
MT1 and MT2 receptors were tested using Promega's spilt luciferase based GboSensor cAMP biosensor technology. HEK-T cells were plated in 15 cm cell culture dish (at a density of 18 million cells) containing DMEM composed of 10% dialyzed FBS, 2 mM L-glutamine, 100 units/ml penicillin G, 100 μg/ml streptomycin for 4-6 hour. Then, cells were co-transfected with 8 μg of construct which encodes either MT1 or MT2 (de-Tangonized constructs) and […] of Glosensor DNA. Next day, transfected cells were seeded into poly-L-lysinecoated 384-well white clear bottom cell culture plates with complete DMEM with 1% dialized FBS at a density of 20,000 cells per well for another 24 h. The next day, cell medium were discarded and loaded with 20 μl of assay buffer (1×HBSS, 20 mM HEPES, pH 7.4, 0.1% BSA). To measure agonist activity of MT1 or MT2 receptor, 10 μl of test compound solution at 3× final concentration was added for 15 minutes followed by addition of 10 μl of luciferin/isoproterenol mixture (at a final concentration of 4 mM and 200 nM respectively) for another 15 mins for luminescence quantification. Then, plates were counted using SpectraMax luminescence reader (Molecular Device). Data were analyzed using GraphPad Prism 6.0.

[1] = HEK293, Table 6, Inverse (inverse agonist), read-out: MT1 Emax
[2] = Table 6, Inverse (inverse agonist), read-out: MT1 pEC50 (converted)
[3] = HEK293, Table 2, agonist, normalized to melatonin response, read-out: MT1 % Emax (converted)
[4] = HEK293, Table 2, agonist, normalized to melatonin response, read-out: MT2 % Emax (converted)
[5] = HEK293, Table 2, cell marked Inverse (inverse agonist), read-out: MT1 % Emax (converted)
[6] = Table 2, cell marked Inverse (inverse agonist)
[7] = HEK293, Table 2, cell marked Inverse (inverse agonist), read-out: MT2 % Emax (converted)
[8] = HEK293, Table 1, agonist, normalized to melatonin response, read-out: MT1 % Emax (converted)
[9] = HEK293, Table 1, agonist, normalized to melatonin response, read-out: MT2 % Emax (converted)
[10] = Table 1, agonist, normalized to melatonin response

## COc1ccc(C2CC2)c(CNc2cccnc2)c1
MT2; HEK293, Table 5, read-out: MT2 Emax
  Emax: 75 ± 5%
MT2; Table 5, MT2 receptor agonists, read-out: MT2 pEC50 (converted)
  EC50: 1.82 nM

## CCC(=O)NC1Cc2ccccc2C(c2ccccc2)C1 (stereo not drawn) [Compound 4P-PDOT, reference compound]
MT2
  MT2 selectivity (agonist): 150 fold

## CCC(=O)NC1CCc2cccc(OC)c2C1 (stereo not drawn) [Compound 8M-PDOT, reference compound]
MT2
  type selectivity: little type selectivity

## c1cc(NCc2ccc(C3CCC3)nc2)cc(-c2cc[nH]n2)c1 [Compound Z3668902476]
hMT1; [1]
  Emax: 30%
hMT1; [2]
  EC50: 75.9 nM

## Cc1nc(-c2cccc(NCc3ncc(Cl)cc3Br)c2)n[nH]1 [Compound Z3668902489]
hMT1; [1]
  Emax: 47%
hMT1; [2]
  EC50: 245 nM

## CCCCC(=O)NCCc1c(Cc2ccccc2)[nH]c2ccccc12 [DH97, reference compound]
MT2
  efficacy at the MT2 receptor: partial agonism

## CC(=O)NCCc1c(Cc2ccccc2)[nH]c2ccccc12 [Luzindole, reference compound]
MT2
  efficacy at the MT2 receptor: partial agonism

## CC(=O)NCCc1c[nH]c2ccccc12 [N-acetyl tryptamine, reference compound]
MT2
  MT2 selectivity (agonist): 39 fold

## COc1ccc(CNc2cccnc2)cc1 [ZINC5586789]
hMT1; [3]
  Emax: 37%
hMT1; Table 2, agonist
  MT1 pEC50: 6.81 ± 0.72
MT2; [4]
  Emax: 51%
MT2; Table 2, agonist
  MT2 pEC50: 8.07 ± 0.15

## Cc1nnc(-c2cccc(NCc3ccc(Cl)cc3)c2)[nH]1 [ZINC37781620]
hMT1; [5]
  Emax: 19%
hMT1; [6]
  MT1 pEC50: 7.90 ± 0.90
MT2; [7]
  Emax: 120%
MT2; [6]
  MT2 pEC50: 6.20 ± 0.10

## COc1ccc(CNc2cccnc2C)cc1C [ZINC91496083]
hMT1; [3]
  Emax: 66%
hMT1; Table 2, agonist
  MT1 pEC50: 4.65 ± 0.44
MT2; [4]
  Emax: 106%
MT2; Table 2, agonist
  MT2 pEC50: 7.15 ± 0.17

## COC(=O)c1sc(N(C)Cc2ccc(Cl)nc2)nc1Cl [ZINC92585174]
hMT1; [8]
  Emax: 98%
hMT1; Table 1, agonist
  MT1 pEC50: 7.80 ± 0.17
MT2; [9]
  Emax: 74%

## COc1ccc(CN(C(=O)c2ccccc2F)c2ccncc2)cc1 [ZINC151192780]
hMT1; [3]
  Emax: 54%
hMT1; Table 2, agonist
  MT1 pEC50: 5.18 ± 0.22
MT2
  selectivity for MT2 over MT1: 200 fold
MT2; [4]
  Emax: 95%
MT2; Table 2, agonist
  MT2 pEC50: 7.13 ± 0.12

## COc1ccc(CN(C(=O)C2CC2C)c2ccncc2)cc1 (stereo not drawn) [ZINC151209032]
hMT1; [8]
  Emax: 88%
hMT1; agonist, read-out: EC50 at MT1
  EC50: 2000 to 6000 nM
MT2
  MT2 activity: without detectable MT2 activity

## COc1ccc(CNc2cccc(-c3nnc[nH]3)c2)cc1 [ZINC157665999]
hMT1; [8]
  Emax: 63%
hMT1; Table 1, agonist
  MT1 pEC50: 4.89 ± 0.38
hMT1; agonist, read-out: EC50 at MT1
  EC50: 10000 nM
MT2; HEK293, Table 1, cell marked Inverse (inverse agonist), read-out: MT2 % Emax (converted)
  Emax: 90%
MT2; Table 1, cell marked Inverse (inverse agonist)
  MT2 pEC50: 7.29 ± 0.16
MT2; inverse agonist, read-out: EC50 at MT2
  EC50: 50 nM

## Clc1ccc(CNc2cccc(-c3nnc[nH]3)c2)c(Cl)c1 [ZINC157676497]
hMT1; [5]
  Emax: 60%
hMT1; [6]
  MT1 pEC50: 7.32 ± 0.05
MT2; [7]
  Emax: 62%
MT2; [6]
  MT2 pEC50: 6.01 ± 0.30

## COC(=O)c1ccc(CSc2nnc(C3CC3)[nH]2)s1 [ZINC159050207]
hMT1
  selectivity for the MT1 v. the MT2 receptor type: 2 fold
hMT1; [10]
  MT1 % Emax: 99 ± 1%
hMT1; agonist
  Emax(%) at MT1: 99±1%
  pEC50 at MT1: 9.00±0.15
MT2; [10]
  MT2 % Emax: 83 ± 3%

## COc1cccc2c1CCN(C(=O)c1ccc(F)nc1)C2 [ZINC182731037]
hMT1; [8]
  Emax: 82%
hMT1; Table 1, agonist
  MT1 pEC50: 5.30 ± 0.09
hMT1; agonist, read-out: EC50 at MT1
  EC50: 2000 to 6000 nM
MT2
  MT2 activity: without detectable MT2 activity

## CN(Cc1ccc2c(c1)OCO2)c1ccnc(Cl)c1 [ZINC223593565]
hMT1; [3]
  Emax: 86%
MT2; [4]
  Emax: 58%

## CN(Cc1ccc2c(c1)OCO2)c1ccnc(Cl)c1 [ZINC301472854]
hMT1; [8]
  Emax: 95%
hMT1; Table 1, agonist
  MT1 pEC50: 6.03 ± 0.10
MT2; [9]
  Emax: 88%

## COc1ccc(CN(C)C(=O)c2cccc(OC(F)F)c2)cc1O [ZINC353044322]
hMT1; [8]
  Emax: 87%
hMT1; Table 1, agonist
  MT1 pEC50: 5.48 ± 0.05
hMT1; agonist, read-out: EC50 at MT1
  EC50: 2000 to 6000 nM
MT2
  MT2 activity: without detectable MT2 activity

## COC(=O)c1cc(Cn2ccn3c(=O)cc(C)nc23)c(C)s1 [ZINC419113878]
hMT1; [8]
  Emax: 84%
hMT1; Table 1, agonist
  MT1 pEC50: 5.20 ± 0.08
hMT1; agonist, read-out: EC50 at MT1
  EC50: 2000 to 6000 nM
MT2
  MT2 activity: without detectable MT2 activity

## COC(=O)c1ccc(I)c(Oc2ccnc(C)n2)c1 [ZINC432154404]
hMT1; [8]
  Emax: 95%
hMT1; Table 1, agonist
  MT1 pEC50: 6.63 ± 0.17
MT2; [9]
  Emax: 74%

## Cn1c(=O)oc2c(NCc3ccc(-c4cc[nH]n4)o3)cccc21 [ZINC433313647]
hMT1; [8]
  Emax: 42%
hMT1; Table 1, agonist
  MT1 pEC50: 6.81 ± 0.32
MT2; [9]
  Emax: 96%

## COc1ccc(CN(C(=O)c2scc(C)c2Cl)c2ccncc2)cc1 [ZINC485552623]
hMT1; FIG. 7D, in words
  MT1 activity: without detectable MT1 activity
MT2; [4]
  Emax: 107%
MT2; Table 2, agonist
  MT2 pEC50: 5.80 ± 0.06

## COc1ccc(CN(C(=O)OC2CCC2)c2ccncc2)cc1 [ZINC497291360]
hMT1; [3]
  Emax: 92%
hMT1; Table 2, agonist
  MT1 pEC50: 7.05 ± 0.10
MT2
  selectivity for MT2 over MT1: 2 fold
MT2; [4]
  Emax: 75 ± 50.1%
MT2; Table 2, agonist
  MT2 pEC50: 7.48 ± 0.05

## Clc1cc(Br)ccc1CNc1cccc(-c2nnc[nH]2)c1 [ZINC516666069]
hMT1; [5]
  Emax: 42%
hMT1; [6]
  MT1 pEC50: 7.05 ± 0.03
MT2; [7]
  Emax: 118%
MT2; [6]
  MT2 pEC50: 5.58 ± 0.04

## Cc1cc(=O)n2ccn(CCc3ccc4c(c3)OC(F)(F)O4)c2n1 [ZINC664088238]
MT2; [9]
  Emax: 75%

## COc1ccc2cccc(CCNC(C)=O)c2c1 [agomelatine, reference compound]
MT2
  type selectivity: little type selectivity

## CCC(=O)NCC[C@@H]1CCc2ccc3c(c21)CCO3 [ramelteon, reference compound]
MT2
  type selectivity: little type selectivity
